Data from patent publication US20220378773A1, “METHODS FOR TREATING LEUKEMIA AND USE OF A LEUKEMIC STEM CELL SIGNATURE TO PREDICT CLINICAL SENSITIVITY TO THERAPIES” (CELGENE CORPORATION, priority 2019, published 2022).

Tested on: AML graft (human CD45+CD33+ cells)
Assay: AML xenograft efficacy, 2.5 mg/kg IP twice daily
Assay type: in vivo, NOD/SCID mice
Details: for In vivo Efficacy (% reduction) BM / In vivo Efficacy (% reduction) RF: AML cells vs vehicle; for Response: class by % reduction of AML cells in RF or BM
Description: Preparation of Test Article for Dosing: For in vivo Compound D dosing, Compound D was formulated immediately prior to each dose following the protocol below.
Formulation: 5% NMP/45% polyethylene glycol (PEG) 400/50% Saline; NMP—Catalogue no. 69118 (new no. M79603-1L), Fluka; PEG400—Catalogue no. 81172-1L, Fluka; Saline—0.9% sodium chloride.
Preparation: Weigh the desired amount of compound in glass vial. Add NMP and vortex. Make sure that entire compound is wet. Add PEG400 and vortex until clear solution without particulates. Add saline slowly and mix thoroughly for about a minute with hand held homogenizer with disposable tip.
Compound Administration: Compound D is dosed via the intraperitoneal route. Vehicle and Compound D are dosed in a volume of 2.5 mL/kg for twice daily (BID) dosing (if testing once daily [QD] dosing, use a dose volume of 5 mL/kg). Recommend a twice daily protocol with a 3-hour separation between the doses.
Intrafemoral Transplantation: One day prior to transplantation, NOD/SCID mice were preconditioned by sublethally irradiating (275 cGy) followed by injection with anti-CD122 antibody (200 μg/mouse) to deplete residual host natural killer (NK) cells. On the day of transplantation, viably frozen AML bulk cells (see Section 6.2.1.2) were thawed, counted, and transplanted intrafemorally into the preconditioned mice at a dose of 5×10^6 cells/mouse in a total volume of 30 μL phosphate buffered saline.
Treatment and Assay Procedure: At Day 21 post AML transplantation, mice were randomly grouped and dosed with either Compound D at 2.5 mg/kg or vehicle (5% N-methyl-2-pyrrolidone [NMP]/45% polyethylene glycol [PEG] 400/50% saline), intraperitoneally twice daily in a dose volume of 50 μL for 4 weeks. All animals were euthanized at scheduled termination (1 day after the last treatment) and bone marrow was collected from the right femur (injected bone marrow) and the left femur and left and right tibia (non-injected bone marrow). Cells isolated from injected or non-injected bone marrow were analyzed by flow cytometry to assess AML engraftment, and were viably frozen for future secondary engraftment analysis.
Cells harvested from injected and non-injected bone marrow were stained with mouse anti human antibodies as indicated in Section 6.2.1.3. After staining, washed cells were run on an LSRII flow cytometer (BD, USA) with 10,000 to 20,000 events collected for each sample. Collected data were analyzed by FlowJo software (TreeStar, USA) to assess AML engraftment levels in different tissues as determined by the percentage of human CD45+CD33+ cells.
Immune-deficient NOD/SCID mice were sublethally irradiated (225cGy) and treated with anti-CD122 antibody to eradicate residual mouse NK cells the day before AML implantation. Primary AML cells from each patient were intrafemorally injected into the mouse right femur at the cell dose 5×10^6 per mouse, with 10 mice transplanted per sample. Compound D and vehicle treatment was initiated at day 21 post transplantation. Compound D was administered at 2.5 mg/kg, intraperitoneally (IP) twice a day at 3 hours apart for 4 weeks. Before each treatment, Compound D was freshly dissolved into the solution. Vehicle was the same solution without Compound D compound and given to the control-treated mice at same volume (50 μL/mouse) with the same therapeutic schedule as Compound D treatment. For each patient sample, each treated group had 5 mice.
After treatment finished, cells were harvested from both injected right femur (RF) and non-injected bone marrow (BM, including left femur, 2 tibias), and stained with human antibodies to assess the engraftment levels of AML. Antibodies used for staining included: Mouse anti-human CD45-APC, CD15-FITC, CD34-APC7, CD38-PC7 (BD Biosciences, USA), CD14-PE, CD33-PC5 (Beckman Coulter, USA), CD19-V450, CD19-AF700, CD11b-APC7, CD34-BV421 (BD Biosciences, USA), and propidium iodide (PI; Invitrogen, USA).

[1] = three samples with high LSC17 score

In the case of `O=C1CCC(N2Cc3cc(CNC(=O)C(F)(F)c4ccc(Cl)cc4)ccc3C2=O)C(=O)N1` (centres unmarked) [Compound D, 2-(4-chlorophenyl)-N-((2-(2,6-dioxopiperidin-3-yl)-1-oxoisoindolin-5-yl)methyl)-2,2-difluoroacetamide], the “response of samples with low LSC17 scores” value (7 of the low LSC17 samples, more than 50% reduction) is reported as “responded very well”, the “human CD45+ leukemia graft in RF and BM” value (AML 100348 (low LSC17)) is reported as “significant response” and the paralyzation or death (AML Patient 90668, 5 million cells per mouse) is reported as “did not rescue these mice from paralyzation or death”. For the same compound, the “number of high LSC17 samples with more than 80% leukemia reduction, BM” value (BM) was 17, the “number of samples with 50 to 75% reduction (group 2), BM” value (BM) was 6 and the “number of samples with >80% reduction (group 1), BM” value (BM) was 14. For the same compound, the “In vivo Efficacy (% reduction) BM” value (Patient 598) was 95%, the “In vivo Efficacy (% reduction) RF” value (Patient 598) was 46% and the Response (Patient 598) was “R (R = >60%)”. The “In vivo Efficacy (% reduction) BM” value (Patient 90191) was −250%, the “In vivo Efficacy (% reduction) RF” value (Patient 90191) was −21% and the Response (Patient 90191) was “NR (NR = <30%)”. For the same compound, the “In vivo Efficacy (% reduction) BM” value (Patient 100348) was 90%, the “In vivo Efficacy (% reduction) RF” value (Patient 100348) was 86% and the Response (Patient 100348) was “R (R = >60%)”. For the same compound, the “In vivo Efficacy (% reduction) BM” value (Patient 110484) was 96%, the “In vivo Efficacy (% reduction) RF” value (Patient 110484) was 73% and the Response (Patient 110484) was “R (R = >60%)”. For the same compound, the “In vivo Efficacy (% reduction) BM” value (Patient 110500) was 67%, the “In vivo Efficacy (% reduction) RF” value (Patient 110500) was 72% and the Response (Patient 110500) was “R (R = >60%)”. For the same compound, the “In Vivo Efficacy (Primary Mice) % AML cell reduction relative to Veh, BM” value (Patient 110625) was 99.9%, the “In Vivo Efficacy (Primary Mice) % AML cell reduction relative to Veh, RE” value (Patient 110625) was 99.9% and the “In vivo Efficacy (% reduction) BM” value (Patient 120791) was 98%. The “In vivo Efficacy (% reduction) RF” value (Patient 120791) was 69%, the Response (Patient 120791) was “R (R = >60%)” and the “In vivo Efficacy (% reduction) BM” value (Patient 120846) was 26%. For the same compound, the “In vivo Efficacy (% reduction) RF” value (Patient 120846) was 9%, the Response (Patient 120846) was “NR (NR = <30%)” and the “In vivo Efficacy (% reduction) BM” value (Patient 120858) was 2%. The “In vivo Efficacy (% reduction) RF” value (Patient 120858) was 0%, the Response (Patient 120858) was “NR (NR = <30%)” and the “percent and number of CD34+ primitive cells” value (Patient 120860) was “not reduced”. For the same compound, the “numbers of AML cells, injected femur” value (Patient 120860 (low LSC17)) was “did not reduce the numbers of AML cells”, the “number of AML cells, non-injected BM” value (Patient 120860 (low LSC17), vs vehicle) was “significantly reduced” and the “In vivo Efficacy (% reduction) BM” value (Patient 120860) was 20%. For the same compound, the “In vivo Efficacy (% reduction) RF” value (Patient 120860) was 1%, the Response (Patient 120860) was “NR (NR = <30%)” and the “In vivo Efficacy (% reduction) BM” value (Patient 120899) was 67%. For the same compound, the “In vivo Efficacy (% reduction) RF” value (Patient 120899) was 13%, the Response (Patient 120899) was “R (R = >60%)” and the “In vivo Efficacy (% reduction) BM” value (Patient 121020) was 52%. For the same compound, the “In vivo Efficacy (% reduction) RF” value (Patient 121020) was 42%, the Response (Patient 121020) was “PR (PR = 30%-60%)” and the “In Vivo Efficacy (Primary Mice) % AML cell reduction relative to Veh, BM” value (Patient 130311) was 99.6%. The “In Vivo Efficacy (Primary Mice) % AML cell reduction relative to Veh, RE” value (Patient 130311) was 99.8%, the “In vivo Efficacy (% reduction) BM” value (Patient 130578) was 73% and the “In vivo Efficacy (% reduction) RF” value (Patient 130578) was 61%. The Response (Patient 130578) was “R (R = >60%)”, the “In vivo Efficacy (% reduction) BM” value (Patient 130695) was 86% and the “In vivo Efficacy (% reduction) RF” value (Patient 130695) was 52%. For the same compound, the Response (Patient 130695) was “R (R = >60%)”, the “In vivo Efficacy (% reduction) BM” value (Patient 130712) was 56% and the “In vivo Efficacy (% reduction) RF” value (Patient 130712) was 17%. The Response (Patient 130712) was “PR (PR = 30%-60%)”, the “In Vivo Efficacy (Primary Mice) % AML cell reduction relative to Veh, BM” value (Patient 130826) was 98.1% and the “In Vivo Efficacy (Primary Mice) % AML cell reduction relative to Veh, RE” value (Patient 130826) was 95.0%. For the same compound, the “In vivo Efficacy (% reduction) BM” value (Patient 130926) was 85%, the “In vivo Efficacy (% reduction) RF” value (Patient 130926) was 70% and the Response (Patient 130926) was “R (R = >60%)”. For the same compound, the “In vivo Efficacy (% reduction) BM” value (Patient 140171) was 28%, the “In vivo Efficacy (% reduction) RF” value (Patient 140171) was 4% and the Response (Patient 140171) was “NR (NR = <30%)”. The “In Vivo Efficacy (Primary Mice) % AML cell reduction relative to Veh, BM” value (Patient 150238) was 98.7%, the “In Vivo Efficacy (Primary Mice) % AML cell reduction relative to Veh, RE” value (Patient 150238) was 95.2% and the “number of high LSC17 samples with more than 80% leukemia reduction, RF” value (RF) was 13. The “number of samples with 50 to 75% reduction (group 2), RF” value (RF) was 10, the “number of samples with >80% reduction (group 1), RF” value (RF) was “Seventeen” and the “number of samples with less than 25% reduction (group 3), RF” value (RF) was 9. The “response, secondary and relapsed vs de novo AML” value (RF and BM) was “responses similar to the cells from de novo AML patients”, the “samples considered responders or partial-responders” value (RF and BM, all samples) was 29 out of 35 samples and the “AML samples with significant effect” value (Section 6.2.6, 4 weeks) was “significant effects on 4 out of 5 AML samples”. For the same compound, the “engrafted samples with significant and dramatic responses” value (Section 6.3, 31 patient samples tested) was 24 out of 28, the responder samples (among 7 AML samples incl. 2 pilot samples) was 5 samples were responders and the “samples that did not respond at all, injected RF” value (group 3) was 4 out of 9. For the same compound, the “samples with no AML reduction, BM” value (group 3) was 3 out of 6, the “response, Flt3-ITD vs wild-type Flt3 in cytogenetically normal AML” value (mouse, in vivo) was “slightly less response to Compound D in injected RF but similar response in BM” and the “response, abnormal vs normal karyotypes” value (mouse, in vivo) was “better response”. The “AML cells in RF and BM” value [1] was “completely eradicated to undetectable levels” and the “absolute numbers of primitive CD34+ cells” value [1] was “very low and undetectable levels”.
